Test results: article PMC9457600, “Synthesis, Leishmanicidal, Trypanocidal, Antiproliferative Assay and Apoptotic Induction of (2-Phenoxypyridin-3-yl)naphthalene-1(2H)-one Derivatives” (Molecules, 2022)

How the values were obtained:
[1] = system: CEM-DNR; experiment: MTS antiproliferative assay CEM-DNR; format: cell-based; settings: Homo sapiens, 72 h of incubation, daunorubicin-resistant
From the text: (§1) The cell lines used were acquired from the American Type Culture Collection (ATCC), CCRF-CEM (T lymphoblastic leukemia), K562 ([…]), U2OS (osteosarcoma), HCT116 (colon carcinoma), A549 (lung adenocarcinoma) and HCT116p53−/− (HCT116 cell line mutated in p53) Horizon Discovery Ltd., (Waterbeach, Cambridge, United Kingdom).
(§2) In our laboratory, IMTM, we generated the daunorubicin-resistant subline of CCRF-CEM cells (CEM-DNR bulk) and paclitaxel-resistant subline K562-TAX, as described previously. […] Both ABC transporters are involved in drug resistance. As a control, human fibroblasts MRC-5 and BJ cell lines were used. […] Adherent cells were passaged using PBS containing 0.25% trypsin plus 0.01% EDTA (ethylenediamine tetraacetic acid) every 2–3 days.
(§3) The antiproliferative activity of compounds was determined using a standard 3-(4,5-dimethylthiazol-2yl)-5-(3-carboxymethoxyphenyl)-2-(4-sulfophenyl)-2H-tetrazolium (MTS) reduction assay on a robotic high throughput screening platform (HighResBio, Boston, MA, USA) following treatment of cells for 3–7 days. The IC50 values were calculated from the appropriate dose–response curves with Dotmatics software (San Diego, CA, USA).

[2] = system: A549; experiment: MTS antiproliferative assay A549; format: cell-based, human; settings: 72 h of incubation
From the text: as §1, §2, §3

[3] = system: K562-TAX; experiment: MTS antiproliferative assay K562-TAX; format: cell-based, human; settings: 72 h of incubation, paclitaxel-resistant
From the text: as §1, §2, §3

[4] = system: BJ; experiment: MTS assay on non-malignant BJ; format: cell-based; settings: noncancerous human cell line
Description: as §2, §3

[5] = system: epimastigotes of Trypanosoma cruzi strain MHOM/VE/92/YBM; experiment: MTT viability of T. cruzi epimastigotes; format: cell-based; settings: Trypanosoma cruzi, 72 h, epimastigotes
[6] = system: promastigotes of Leishmania (V.) braziliensis strain MHOM/CO/87/UA301; experiment: MTT viability of L. braziliensis promastigotes; format: cell-based;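 also: promastigote proliferation in 96-well plates, MTT reduction read at 570 nm, EC50 derived from growth curves, cytotoxicity CC50 likewise by MTT in BMDM and VERO cells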
Description: Promastigotes of Leishmania (V.) braziliensis strain MHOM/CO/87/UA301 were isolated from footpad lesions in Balb/C mice previously infected. In the process of maintenance and differentiation of the parasites, the LTI medium (tryptose 15 g/L, yeast extract 5 g/L, liver extract 2 g/L, hemin-NaOH 0.02 g/L, glucose 4 g/L, NaCl 9 g/L, KCl 0.4 g/L Na2HPO4, 7.5 g/L at pH 7.4) supplemented with 10% fetal calf serum and maintained at 29 °C was used.
Briefly, 96-well plates were used, where 2 × 10^6 parasites/mL were seeded. A concentration of 50 μM was used for each compound and an incubation time of 96 h at 29 °C. 3-(4,5-dimethylthiazol-2-yl)-2,5-diphenyl tetrazolium bromide (MTT) 1 μg/mL was added and incubated in darkness for 4 h, acidic isopropanol (4N) was added and the plate was read at 570 nm in a spectrophotometer Synergy HT (Biotek). Miltefosine was used as a reference drug. The EC50 calculation of the selected compound was performed using growth curves. Direct counting was used to monitor the proliferation of parasites, three independent experiments were performed for each concentration of the compounds evaluated. The in vitro evaluations of compounds toxicity by MTT in VERO and BMDM cells follow a methodology described above with some modifications [60].

[7] = system: U2OS; experiment: MTS antiproliferative assay U2OS; format: cell-based; settings: Homo sapiens, 72 h of incubation
From the text: as §1, §2, §3

[8] = system: MRC-5; experiment: MTS assay on non-malignant MRC-5; format: cell-based; settings: MRC5; noncancerous human cell line
Description: as §2, §3

[9] = system: K562; experiment: MTS antiproliferative assay K562; format: cell-based, human; settings: for IC50: 72 h of incubation; for times higher cytotoxicity against K562 than K562-TAX: ratio of IC50 values
From the text: as §1, §2, §3

[10] = system: HCT116p53−/−; experiment: MTS antiproliferative assay HCT116p53-/-; format: cell-based; settings: Homo sapiens; 72 h of incubation
From the text: as §1, §2, §3

[11] = system: CCRF-CEM; experiment: MTS antiproliferative assay CCRF-CEM; format: cell-based; settings: Homo sapiens, 72 h of incubation
From the text: as §1, §2, §3

[12] = system: HCT-116; experiment: MTS antiproliferative assay HCT116; format: cell-based; settings: Homo sapiens, 72 h of incubation
From the text: as §1, §2, §3

[13] = system: K562 cell line; experiment: Annexin V-FITC/PI flow cytometry apoptosis assay K562; format: cell-based, human; settings: 24 h
Description: (§4) Cell death was assessed after 24 h incubation with compounds 18 and 22. Apoptosis was analyzed by flow cytometry using annexin V-FITC and propidium iodide (PI). Early apoptosis was defined by annexin V-FITC expression and, necrosis by PI expression, late apoptosis by coexpression of annexin V/PI. Doxorubicin and quercetin were used as positive controls. The results of a typical flow cytometry analysis of both compounds are illustrated in Figure 2 and Figure 3. An increase in early apoptosis and late apoptosis was observed; necrosis was less predominant. The results are summarized in Tables S1 and S2 (Supplementary Materials). The expression of annexin V was different depending on the compound used. K562, A549 cell lines were treated as described by the manufacturer (Santa Cruz Biotechnology), washed, and resuspended in annexin V binding buffer (0.01 M HEPES, 0.14 M NaCl, and 2.5 mM CaCl2) with the subsequent incubation of annexinV-FITC and then PI. An Epics XL cytometer (Beckman Coulter, Indianapolis, IN, USA) was used for the analysis. Untreated cells were the negative controls, and doxorubicin (Dox) (1 μM), and quercetin (QC) (50 μM) were the positive controls. Early apoptosis refers to annexin V expression, late apoptosis, the coexpression of annexin V and PI, and necrosis the sole expression of PI. […] The experiments were performed as described before. To avoid the unwanted effects of DMSO, the concentrations of the compounds were never higher than 100 μM.

[14] = system: A549 cell line; experiment: Annexin V-FITC/PI flow cytometry apoptosis assay A549; format: cell-based, human; settings: 24 h
Description: as §4

Row | SMILES | IC50 [1] [µM] | IC50 ([2]; Homo sapiens, A549, 72 h) [µM] | IC50 ([3]; Homo sapiens, K562-Tax, 72 h) [µM] | IC50 [4] [µM] | EC50 [5] [µM] | EC50 ([6]; 72 h, promastigotes) [µM] | IC50 [7] [µM] | IC50 [8] [µM] | IC50 ([9]; Homo sapiens, K562, 72 h) [µM] | IC50 [10] [µM] | IC50 [11] [µM] | IC50 [12] [µM] | melting point [°C] | also measured
1 | O=C1/C(=C/c2cccnc2Oc2ccc(F)cc2)CCc2ccccc21 [Compound 12, (E)-2-{[2-(4-Fluorophenoxy)pyridin-3-yl]methylene}-3,4-dihydronaphthalen-1(2H)-one] | 35.6 ± 4.42 | 28.1 ± 4.86 | 32.9 ± 3.19 | > 50 | > 100 | > 100 | 23.2 ± 1.9 | > 50 | 22.4 ± 2.3 | 26.9 ± 3.49 | 6.7 ± 0.98 | 26.4 ± 1.58 |  | 
2 | COc1cccc2c1CC/C(=C\c1cccnc1Oc1ccc(F)cc1)C2=O [Compound 13, (E)-2-{[2-(4-Fluorophenoxy)pyridin-3-yl]methylene}-3,4-dihydro-5-methoxynaphthalen-1(2H)-one] | 37.3 ± 3.13 | 28.4 ± 2.14 | 39.3 ± 5.4 | > 50 | > 100 | > 100 | 21 ± 2.21 | > 50 | 23.4 ± 2.31 | 23.5 ± 1.5 | 6.07 ± 0.59 | 27.2 ± 2.44 | 154 to 156 | 
3 | COc1ccc2c(c1)CC/C(=C\c1cccnc1Oc1ccc(F)cc1)C2=O [Compound 14, (E)-2-{[2-(4-Fluorophenoxy)pyridin-3-yl]methylene}-3,4-dihydro-6-methoxynaphthalen-1(2H)-one] | 41.3 ± 5.67 | 43.6 ± 4.12 | > 39.2 | > 50 | > 100 | > 100 | > 50 | > 50 | 5.74 ± 3.2 | > 50 | 20.1 ± 2.43 | > 50 | 152 to 154 | IC50 [3]: 39.2 ± 9.37 µM; times higher cytotoxicity against K562 than K562-TAX [9]: 6.8 times
4 | COc1ccc2c(c1)C(=O)/C(=C/c1cccnc1Oc1ccc(F)cc1)CC2 [Compound 15, (E)-2-{[2-(4-Fluorophenoxy)pyridin-3-yl]methylene}-3,4-dihydro-7-methoxynaphthalen-1(2H)-one] | 23.1 ± 4.38 | 29.1 ± 5 | 19.7 ± 3.78 | > 50 | > 100 | > 100 | 26.3 ± 4.61 | > 50 | 27.7 ± 2.49 | 23.9 ± 2.5 | 9.13 ± 1.38 | 30.5 ± 2.34 | 150 to 152 | 
5 | O=C1/C(=C/c2cccnc2Oc2ccc(Br)cc2)CCc2ccccc21 [Compound 16, (E)-2-{[2-(4-Bromophenoxy)pyridin-3-yl]methylene}-3,4-dihydronaphthalen-1(2H)-one] | 34.3 ± 3.61 | 39.7 ± 1.89 | 25.6 ± 5.37 | > 50 | > 100 | > 100 | 38 ± 4.47 | > 50 | 23.9 ± 2.28 | 31.5 ± 62.7 | 8.7 ± 2.19 | 29.9 ± 4.59 | 138 to 140 | 
6 | COc1cccc2c1CC/C(=C\c1cccnc1Oc1ccc(Br)cc1)C2=O [Compound 17, (E)-2-{[2-(4-Bromophenoxy)pyridin-3-yl]methylene}-3,4-dihydro-5-methoxynaphthalen-1(2H)-one] | 31.7 ± 5.86 | > 50 | 31.4 ± 6.59 | > 50 | > 100 | > 100 | > 50 | > 50 | 32 ± 3.72 | > 50 | 12.9 ± 2.07 | > 50 | 158 to 160 | 
7 | COc1ccc2c(c1)CC/C(=C\c1cccnc1Oc1ccc(Br)cc1)C2=O [Compound 18, (E)-2-{[2-(4-Bromophenoxy)pyridin-3-yl]methylene}-3,4-dihydro-6-methoxynaphthalen-1(2H)-one] | 25.7 ± 5.71 | 9.64 to 9.74 | 17.6 ± 7.09 | > 50 | > 100 | > 100 | 7.27 ± 0.68 | > 50 | 3.91 to 4.33 | > 50 | 5.97 ± 0.67 | > 50 |  | IC50 [2]: 9.64 ± 1.71 µM; AV+/IP+ (late apoptosis) ([13]; K562, 5 µM): 2.84%; AV+/IP- (early apoptosis) ([13]; K562, 5 µM): 22.70%; AV-/IP+ (necrosis) ([13]; K562, 5 µM): 0.89%; AV+/IP+ (late apoptosis) ([13]; K562, 10 µM): 89.50%; AV+/IP- (early apoptosis) ([13]; K562, 10 µM): 8.69%; AV-/IP+ (necrosis) ([13]; K562, 10 µM): 1.12%; annexin V-FITC expression ([13]; K562, 10 µM): higher than 50%; AV+/IP+ (late apoptosis) ([14]; A549, 10 µM): 3.28%; AV+/IP- (early apoptosis) ([14]; A549, 10 µM): 11.10%; AV-/IP+ (necrosis) ([14]; A549, 10 µM): 3.06%; AV+/IP+ (late apoptosis) ([14]; A549, 25 µM): 21.10%; AV+/IP- (early apoptosis) ([14]; A549, 25 µM): 40.10%; AV-/IP+ (necrosis) ([14]; A549, 25 µM): 3.12%; IC50 [9]: 4.33 ± 0.19 µM; times higher cytotoxicity against K562 than K562-TAX [9]: 4.1 times
8 | COc1ccc2c(c1)C(=O)/C(=C/c1cccnc1Oc1ccc(Br)cc1)CC2 [Compound 19, (E)-2-{[2-(4-Bromophenoxy)pyridin-3-yl]methylene}-3,4-dihydro-7-methoxynaphthalen-1(2H)-one] | 20 ± 3.99 | > 50 | 4.17 ± 2.93 | > 50 | > 100 | ≤ 60 | > 50 | > 50 | 43 ± 5.1 | > 50 | 12.9 ± 2.43 | > 50 | 144 to 146 | EC50 ([6]; promastigotes, 72 h): 44.6 ± 1.15 µM
9 | COc1cccc2c1C(=O)c1c(O)c3c(c(O)c1C2=O)C[C@@](O)(C(=O)CO)C[C@@H]3O[C@H]1C[C@H](N)[C@H](O)[C@H](C)O1 [Dox, doxorubicin, reference compound] |  |  |  |  |  |  |  |  |  |  |  |  |  | AV+/IP+ (late apoptosis) ([13]; K562, 1 µM): 29.80%; AV+/IP- (early apoptosis) ([13]; K562, 1 µM): 29.40%; AV-/IP+ (necrosis) ([13]; K562, 1 µM): 19.20%; AV+/IP+ (late apoptosis) ([14]; A549, 1 µM): 33.50%; AV+/IP- (early apoptosis) ([14]; A549, 1 µM): 8.33%; AV-/IP+ (necrosis) ([14]; A549, 1 µM): 29.30%
10 | O=c1c(O)c(-c2ccc(O)c(O)c2)oc2cc(O)cc(O)c12 [QC, quercetin, reference compound] |  |  |  |  |  |  |  |  |  |  |  |  |  | AV+/IP+ (late apoptosis) ([13]; K562, 50 µM): 6.25%; AV+/IP- (early apoptosis) ([13]; K562, 50 µM): 34.30%; AV-/IP+ (necrosis) ([13]; K562, 50 µM): 1.57%; AV+/IP+ (late apoptosis) ([14]; A549, 50 µM): 21.70%; AV+/IP- (early apoptosis) ([14]; A549, 50 µM): 26.10%; AV-/IP+ (necrosis) ([14]; A549, 50 µM): 5.60%
